Test results reported in paper PMC10949195, “Exponential Combination of a and e/g Intracellular Peptide Libraries Identifies a Selective ATF3 Inhibitor” (ACS Chemical Biology, 2024).

Key:
ATF3 = biological target: T1, ATF3 (Homo sapiens, UniProt P18847); assay: CD thermal denaturation of peptide mixed 1:1 with ATF3; assay type: binding; conditions: peptide incubated with ATF3; CD signal at 222 nm, 1 °C increments; 150 μM total peptide; 10 mM potassium phosphate, 100 mM potassium fluoride, pH 7.0; two-state denaturation model
T1 construct: We focus on the selective targeting of the ATF3 leucine zipper dimerization domain using intracellular peptide library screening; made in house; host or cells: chemical solid-phase peptide synthesis (no expression host)
T1 sequence (P18847 110-143): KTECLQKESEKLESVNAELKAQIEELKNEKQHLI
Source text: Following the observed significant increase in global secondary structure content for the ATF3-ATF3W_aeg complex relative to component peptides (Figure 6), we next analyzed the stability of the complex by undertaking thermal denaturation experiments (Figure 7). […] Moreover, consistent with spectral data, the clear increase from the average profile of the component peptides relative to that of the measured is most pronounced in the combined construct (Figure 7, red hash vs black). This provides robust additional evidence for a preferential interaction between ATF3 and ATF3W_aeg that is improved over either the core a or electrostatic e/g constructs.
Shown are thermal stabilities of peptide pairs measured via temperature dependence of the CD signal at 222 nm. The thermal denaturation profiles for (a) ATF3-ATF3W_a, (b) ATF3-ATF3W_eg, and (c) ATF3-ATF3W_aeg show a substantial increase in the transition midpoint (Tm = 59 °C) relative to component peptides (black vs red hash). Experiments were performed in 10 mM potassium phosphate and 100 mM potassium fluoride (pH 7.0). All spectra were recorded at 1 °C increments at a total peptide concentration of 150 μM and fitted to a two-state denaturation model.
Thermal denaturation experiments were performed at 150 μM total protein concentration in 10 mM potassium phosphate and 100 mM potassium fluoride, pH 7, using an Applied Photophysics Chirascan CD instrument (Leatherhead, UK) as previously described.[23]

[1] = system: M2 macrophages differentiated from the human THP-1 monocytic cell line; assay: THP-1 polarization assay and CCL-4 ELISA; assay type: cell-based; conditions: M2 macrophages from THP-1 (IL-4 polarized); 20 μM peptide with NLS-TAT appendage; 48 h; versus untreated
Source text: ATF3 is a transcriptional repressor that regulates both the extent and duration of pro-inflammatory gene expression.[17] Specifically, ATF3 has been implicated in the transcriptional repression of chemokines including chemokine (C–C motif) ligand 4 (CCL4),[18] also known as macrophage inflammatory protein (MIP-1β), which promotes recruitment of additional immune cells to inflamed tissues. In the context of cancer, ATF3 activity counters antitumor immunity and promotes tumor growth. We therefore explored the effect of the ATF3W-aeg antagonist peptide on CCL4 expression in M2 anti-inflammatory macrophages differentiated from the human THP-1 monocytic cell line. […]
Figure 10 ATF3W-aeg peptide stimulates expression of pro-inflammatory cytokine in M2 macrophages. CCL4 protein levels were measured by ELISA from supernatants of M2 macrophage cultures treated with either 20 μM ATF3W-aeg or negative control peptide (****p < 0.0001). […]
THP-1 cells were seeded in 12-well format at a concentration of 5 × 10^5 cells/well and treated with 7.5 ng/mL Phorbol 12-Myristate 13-Acetate (PMA, Sigma-Aldrich) in RPMI media supplemented with 10% FBS and 55 μM β-mercaptoethanol (BME). […] After 48 h, supernatants were collected and clarified by centrifugation, and the CCL-4 concentration was assessed by ELISA (MIP-1b Human Instant ELISA Kit, ThermoFisher Scientific) according to the manufacturer’s protocol.

ATF3W_aeg = biological target: T2, ATF3W_aeg (synthetic construct); assay: ITC
T2 chain: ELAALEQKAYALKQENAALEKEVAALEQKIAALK

EAAALEQKIYALKQEAAALEKEIAALEQKAAALK [ATF3W_eg]
transition midpoint (Tm) of heterodimer with ATF3 (ATF3): 52 °C

QLAALQQQAYALQQQNAALQKQVAALQQQIAALQ [ATF3W_a]
transition midpoint (Tm) of heterodimer with ATF3 (ATF3): 26 °C

Ac-KAAALKQKAYALKQQIAALKKQVAALKQKIAALKPKKKRKVYGRKKRRQRRR-NH2 [Fra1W-NLS TAT, reference compound]
effect on CCL4 expression (protein in supernatant, ELISA) [1]: no effect

TECLQKESEKLESVNAELKAQIEELKNEKQHLIYM [ATF3 leucine zipper]
Kd (ATF3W_aeg): 151 nM
